# What was measured:
# human neutrophils [1] = assay: Superoxide anion generation (lucigenin chemiluminescence); assay type: cell-based; details: up to 50 μM
# Description: Superoxide anion generation was measured by monitoring chemiluminescence in the presence of the chemiluminogenic probe lucigenin. Prepared neutrophils were stimulated with m-3M3FBS or o-3M3FBS at 2.5, 5, 10, 15, 20, 25, and 50 μM and lucigenin (40 μM) was then added. Luminescence changes were measured using a Luminoskan. Data are presented as means ±S. E. M. of four independent experiments (A). Structures of m-3M3FBS (2,4,6-Trimethyl-N-(meta 3-trifluoromethyl-phenyl)-benzenesulfonamide) and o-3M3FBS (2,4,6-Trimethyl-N-(ortho 3-trifluoromethyl-phenyl)-benzenesulfonamide) (B).
# Superoxide anion production was measured by monitoring chemiluminescence in the presence of the chemiluminogenic probe lucigenin (Bureau et al., 2001). Prepared neutrophils were plated in 96 wells and stimulated with chemicals at concentrations of 2.5, 5, 10, 15, 20, 25 and 50 μM, and then the lucigenin (40 μM) was added. Luminescence, measured with a Luminoskan (Labsystems, Inc., Helsinki, Finland), was integrated over 10 s intervals for a total of 3 min at room temperature.
# phospholipase D = assay: In vitro activity of phospholipase D; assay type: biochemical; details: data not shown
# U937 cells = assay: [Ca2+]i measurement with fura-2; assay type: cell-based, human; details: 25 μM
# Description: (§1) Neutrophils and HL60, and differentiated HL60, U937, NIH3T3, and PC12 cells were loaded with fura-2 and then stimulated with 25 μM of m-3M3FBS. Changes in the 340 nm/380 nm excitation ratio were monitored, and converted to [Ca^2+]i levels. Data are presented as means ±S. E. M. of three independent experiments.
# (§2) U937 (human histiocytic lymphoma cells), HL60 (human promyelocytic leukemia cells), NIH3T3 (NIH Swiss mouse embryo fibroblasts), and PC12 (rat adrenal pheochromocytoma cells) were obtained from the American Type Culture Collection (Rockville, Md.) and HeLa (human adenocarcinoma cells) Tet-off cells were purchased from Clontech (Palo Alto, Calif., U.S.A.) and maintained as recommended. The cells were maintained at about 1×10^6 cells/ml under standard incubator conditions (humidified atmosphere, 95% air, 5% CO2, 37° C.). HL60 cells were induced to differentiate into the granulocyte phenotype by adding dimethylsulfoxide (DMSO) (final concentration 1.25% v/v) for 5 days, as has been described before (Ithoh et al., 1998).
# (§3) Freshly prepared human neutrophils were incubated in serum free RPMI 1640 medium with 3 μM of fura-2/AM at 37° C. for 30 min with continuous stirring. After washing with serum free RPMI 1640 medium, the cells were suspended in serum free RPMI containing 250 μM of sulfinpyrazone to prevent dye leakage. About 2×10^6 cells were suspended in Ca^2+ free Locke's solution (158.4 mM NaCl, 5.6 mM KCl, 1.2 mM MgCl2, 5 mM HEPES pH 7.3, 10 mM glucose, and 0.2 mM EGTA) for each measurement. Changes in the fluorescence ratio were measured at an emission wavelength of 500 nm for dual excitation wavelengths at 340 nm and 380 nm. The calibration of the fluorescence ratio versus [Ca^2+]i was performed as described by Grynkiewicz (Grynkiewicz et al., 1985).
# [2] = tested on: differentiated HL60 cells; assay: [Ca2+]i measurement with fura-2; assay type: cell-based, human; details: 25 μM
# Description: as §1, §2, §3
# HL60 cells = assay: [Ca2+]i measurement with fura-2; assay type: cell-based, human; details: 25 μM
# Description: as §1, §2, §3
# human neutrophils [3] = assay: Cross-desensitization of [Ca2+]i responses in neutrophils; assay type: cell-based; details: extracellular calcium free
# Description: FIG. 5 describes cross-desensitization experiments. Fura-2-loaded neutrophils were pretreated with m-3M3FBS (25 μM) and then rechallenged with ATP (500 μM) or WKYMVm (1 μM) in this or in the reverse order in the extracellular calcium free condition. Changes in the 340 nm/380 nm excitation ratio were monitored, and converted to [Ca^2+]i levels. The results shown are representative of three independent experiments.
# as §3
# Gq-proteins = assay: [Ca2+]i in RGS2-GFP inducible HeLa cells; assay type: cell-based, human; details: histamine 100 μM, m-3M3FBS 25 μM
# Description: Isolated neutrophils were preincubated with PTX (1 μg/ml) or vehicle for 90 min at 37° C. and stimulated with m-3M3FBS, FMLF, or ATP at concentrations of 25, 1, and 500 μM, respectively. Changes in the excitation ratios at 340 nm/380 nm were monitored. Data are presented as means ±S. E. M. of two independent experiments (A). cAMP levels were determined by a radio receptor assay. Prepared cells were treated with m-3M3FBS (25 μM) or histamine (100 μM) and then lysed with Tris-EDTA. After removing the supernatant, [ 3H] cAMP and protein were added, and the amount of [^3H] cAMP-protein complex was determined. The amount of unlabeled cAMP (in the sample) was then calculated by measuring the protein-bound radioactivity. Data are presented as means ±S. E. M. of two independent experiments (B). […] RGS2-GFP inducible HeLa cells were cultured for 48 h in the absence or in the presence of tetracycline and loaded with fura-2. Cells were treated with histamine (100 μM) or m-3M3FBS (25 μM), and changes in the 340 nm/380 nm ratios were monitored and converted to [Ca^2+]i values. The results shown are representative of three independent experiments (C).
# pRevTRE vector containing the cDNA of rat RGS2-GFP was transfected into Hela Tet-off cells using Lipofectamine. Selection was performed in DMEM supplemented with 2 μg/ml of tetracycline and 500 μg/ml of hygromycin B. Two weeks later, several well-isolated colonies were picked out and analyzed by western blotting to determine the expression level of RGS2 in the absence of tetracycline. For these experiments, HeLa cells were cultured for 48 h in the absence or in the presence of tetracycline.
# as §3
# PI3-kinase = assay: Akt phosphorylation in U937 cells; assay type: cell-based, human; details: 50 μM, data not shown
# Description: The result led us to check whether the compound act specifically on PLC or act on other enzymes that recognize phosphoinositols as substrates such as phosphoinositide-3-kinase (PI3-kinase). For this, we tested the effect of m-3M3FBS on the Akt phosphorylation that is dependent on the PI3-kinase in U937 cells. […] The result support our notion that m-3M3FBS acts specifically on PLC.
# NIH3T3 cells = assay: [Ca2+]i measurement with fura-2; assay type: cell-based, mouse; details: NIH 3T3; 25 μM
# Description: as §1
# as §2, with “HL60 cells were induced to differentiate into the granulocyte phenotype by adding dimethylsulfoxide (DMSO) (final concentration 1.25% v/v) for 5 days, as has been described before (Ithoh et al., 1998).” left out
# Freshly prepared human neutrophils were incubated in serum free RPMI 1640 medium with 3 μM of fura-2/AM at 37° C. for 30 min with continuous stirring. […] Changes in the fluorescence ratio were measured at an emission wavelength of 500 nm for dual excitation wavelengths at 340 nm and 380 nm. The calibration of the fluorescence ratio versus [Ca^2+]i was performed as described by Grynkiewicz (Grynkiewicz et al., 1985).
Compound,effect on superoxide generation (human neutrophils [1]),activity of phospholipase D (phospholipase D),calcium increase (U937 cells),calcium increase [2],calcium increase (HL60 cells),[Ca2+]i response when given after ATP or WKYMVm (human neutrophils [3]; 25 μM after ATP 500 μM or WKYMVm 1 μM),"effect of prestimulation on cellular response to ATP (human neutrophils [3]; m-3M3FBS 25 μM, then ATP 500 μM)","effect of prestimulation on cellular response to WKYMVm (human neutrophils [3]; m-3M3FBS 25 μM, then WKYMVm 1 μM)",[Ca2+]i increase (Gq-proteins; HeLa cells in the presence of tetracycline (RGS2 not induced)),effect of RGS2 induction on the induced calcium response (Gq-proteins; HeLa cells overexpressing RGS2),phosphorylation level of Akt (PI3-kinase),calcium increase (NIH3T3 cells)
"Cc1cc(C)c(S(=O)(=O)Nc2ccccc2C(F)(F)F)c(C)c1 [o-3M3FBS, 2,4,6-Trimethyl-N-(ortho 3-trifluoromethyl-phenyl)-benzenesulfonamide, reference compound]",did not affect,,,,,,,,,,,
"Cc1cc(C)c(S(=O)(=O)Nc2cccc(C(F)(F)F)c2)c(C)c1 [m-3M3FBS, 2,4,6-Trimethyl-N-(meta 3-trifluoromethyl-phenyl)-benzenesulfonamide]",,did not affect,induced calcium increase,induced calcium increase,induced calcium increase,elicited still further [Ca^2+]i increases,significantly reduced,significantly reduced,caused [Ca^2+]i increases,unaffected,couldn't significantly increase,induced calcium increase

# Reference: US20040220268A1, “Compound that directly stimulates phospholipase C activity” (priority 2003, published 2004)
